The values below come from PMC8704606, “The Artemiside-Artemisox-Artemisone-M1 Tetrad: Efficacies against Blood Stage P. falciparum Parasites, DMPK Properties, and the Case for Artemiside” (Pharmaceutics, 2021).

Data set [1] deals with asexual blood stages of Pf K1 (drug resistant). Kind of data set: SYBR Green I proliferation assay, asexual blood stages, Pf K1. Type of data set: cell-based, Plasmodium falciparum. Here is the method: (§1) Dose response curves are in Figures S1a–c and S2a–c in the Supplementary Material 1. Table 1 also includes the historical values for artemiside and artemisone obtained using the same assay.
(§2) All other assay conditions are as previously described. Compound working solutions were prepared from a 10 mM stock solution in 100% (vol/vol) dimethyl sulfoxide (DMSO, Sigma-Aldrich) in supplemented RPMI 1640 medium containing AlbuMAX II with a final DMSO concentration of 0.1% (vol/vol), previously determined to be nontoxic to blood stage asexual parasites and gametocytes. The dose-responses of the amino-artemisinins were assayed using a 2-fold serial drug dilution on in vitro 95% ring-stage parasites at 37 °C under 90% N2, 5% CO2, and 5% O2 atmospheric conditions, detecting SYBR green I fluorescence as the proliferative marker following a 96 h drug treatment (1% parasitemia and 1% hematocrit) using a GloMaxR-Multi+ Detection System (Promega). No drug washout steps were performed during drug incubation periods prior to the assays. Activity against the Pf drug-sensitive NF54 strain and the drug-resistant K1 (resistant to CQ, quinine, pyrimethamine, and cycloguanil) and W2 (resistant to CQ, quinine, pyrimethamine, and cycloguanil) strains was evaluated. Data analysis was performed using GraphPad Prism (version 6), intra-assay variability was monitored with Z-factors, and acceptable interassay reproducibility was determined from the percent coefficient of variation (CV).

In data set [2] the test system is asexual blood stages of Pf NF54 (drug sensitive). Kind of data set: SYBR Green I proliferation assay, asexual blood stages, Pf NF54. It is filed as cell-based, Plasmodium falciparum. Here is the method:
as §1, §2

Data set [3] concerns early-stage (EG) Pf NF54 gametocytes. The experiment in a line: Luciferase assay, early-stage gametocytes. Type of data set: cell-based, Plasmodium falciparum. As to conditions: early-stage gametocytes >95% stages II-III, 48 h incubation, ± SEM. Here is the method:
For screening artemisox and M1 against early- (EG) and late-stage (LG) gametocytes, the luciferase assay with transgenic NF54-pfs16-GFP-Luc and NF54-Mal8p1.16-GFP-Luc parasite lines was used. With this assay, stage-specificity of gametocytocidal action was established (Table 2). Dose-response curves are in Figures S1d,e and S2d in the Supplementary Material 1. […] As was observed previously for artemisone and artemiside, dose responses for artemisox and M1 could not be obtained at 48 h against late-stage gametocytes.
The same reference compounds with the exception of CQ were used for the early- and late-stage gametocyte assays. Gametocytocidal activity was determined using the transgenic NF54-pfs16-GFP-Luc and NF54-Mal8p1.16-GFP-Luc reporter lines. Compounds were initially screened for activity at a fixed drug concentration of 1 µM, with dose responses subsequently determined using 2-fold serial drug dilutions for 48 h against early-stage gametocytes (day 5 post-induction population, ≥95% stages II–III) and 10-fold serial drug dilutions for 48 h or 72 h against late-stage gametocytes (day 10 post-induction population, ≥90% late-stage [stages IV–V]) (2 to 3% gametocytemia, 2% hematocrit) at 37 °C under 90% N2, 5% CO2, and 5% O2 [6]. No drug washout steps were performed during the drug incubation periods prior to the assays. In all cases, an interference assay was run in parallel to eliminate the possibility of false positives arising through compound interference with the luciferase readout.

The test system of data set [4] is TM-C2B. Also on record: method as in ref S2. As to conditions: [3H]-hypoxanthine assay; ref S2; read-out: Antimalarial activities IC50 TM-C2B; cited from earlier work.
The test system of data set [5] is D6 (CQ sensitive). Also on record: method as in ref S2. As to conditions: [3H]-hypoxanthine assay; ref S2; read-out: Antimalarial activities IC50 D6; cited from earlier work.
Data set [6] has as its system W2 (CQ resistant). Also on record: method as in ref S2. As to conditions: [3H]-hypoxanthine assay; ref S2; read-out: Antimalarial activities IC50 W2; cited from earlier work.
Data set [7] deals with TM91-C235 (CQ and MFQ resistant). Also on record: method as in ref S2. As to conditions: [3H]-hypoxanthine assay; ref S2; read-out: Antimalarial activities IC50 TM91-C235; cited from earlier work.
The conditions of data set [8]: single dose 10 mg/kg, healthy Aotus monkeys; cited from earlier work.
For data set [9], the system named is fetal rat brain stem cells. Particulars: ref S4 (24), cited from earlier work; for Viability NOEC: neuron-specific enolase activity, 7 days exposure.
Setting [10] is: ATP levels 1 day after initial administration.

Where two headings read alike, the source gives them in different places.

For orientation: IC50 means the concentration needed to halve the response being measured. As to `C[C@H]1[C@H](N2CC[S+]([O-])CC2)O[C@@H]2O[C@@]3(C)CC[C@H]4[C@H](C)CC[C@@H]1[C@@]24OO3` [Artemisox 6, Artemisox], the “RI (resistance index) = IC50 K1/IC50 NF54” value in data set [1] was 0.8. Also, the IC50 is 1.5 ± 0.5 nM in data set [1] (Plasmodium falciparum, asexual blood stage Pf K1, multidrug resistant, SYBR Green I, 96 h, ± SEM); 1.95 ± 0.25 nM in data set [2] (Plasmodium falciparum, NF54, 96 h, asexual blood stage Pf NF54, CQ sensitive, SYBR Green I, 96 h, ± SEM, read-out: IC50 NF54); ~2 nM in data set [2] (Plasmodium falciparum, NF54, summary over NF54, K1 and W2 strains, read-out: IC50 against asexual Pf blood stage parasites); 1.5 to 2.6 nM in [2] (summary over NF54, K1 and W2 strains, read-out: IC50 against asexual Pf blood stage parasites); 18.9 nM in [3] (Plasmodium falciparum, NF54, 48 h); 18.9 ± 0.98 nM in data set [3]. In addition, the “RI ratios” value in [1] (multidrug resistant K1 and W2 vs NF54) was < 1.

`C[C@H]1[C@H](N2CCS(=O)(=O)CC2)O[C@@H]2O[C@@]3(C)CC[C@H]4[C@H](C)CC[C@@H]1[C@@]24OO3` [Artemisone 7, Artemisone]: the IC50 was 1.1 ± 0.4 nM in data set [4], 1 ± 0.4 nM in [5], 1.3 ± 0.5 nM in data set [6] and 1.1 ± 0.5 nM in data set [7]. The “ex vivo antimalarial activity observable up to (post dose)” value in data set [8] was “up to 7 h”.

With `C[C@H]1[C@H](N2CCSCC2)O[C@@H]2O[C@@]3(C)CC[C@H]4[C@H](C)CC[C@@H]1[C@@]24OO3` [Artemiside 5, Artemiside], the “ATP IC50” value in data set [9] (setting [10]) is recorded as 8.5 µg/mL. Further, the “ATP NOEC” value in data set [9] (setting [10]) is 1.0 µg/mL; in data set [9] (ATP levels 1 day after initial administration, listed as artemiside), 1 µg/mL. For the same molecule, the figures for the “Viability NOEC” value in data set [9] and in data set [9] (listed as artemiside) were 1.0 µg/mL and 1 µg/mL, respectively.
